Laboratory results taken from patent US20030008925A1, “Treatment of drug-induced sleepiness” (priority 1997, published 2003).

Assays:
Assay type in all cases: in vivo, human
[1] = tested on: patient under morphine treatment; experiment: Sleepiness evaluated on the Epworth scale in hospitalized patients under morphine treatment
Source text: the Epworth scale, while ensuring the analgesic properties of morphine and the properties of antidepressant, anxiolytic or analgesic medicaments are maintained. The patient is thus re-established in a satisfactory relational life.
(§1) In order to illustrate the invention, but without limiting its scope, the results of observations made confidentially on patients in the context of hospitalization are reported below. The consent of the patients was obtained after the compassionate grounds of the prescription had been explained to them.

[2] = tested on: patient under morphine treatment; experiment: Pain rating on the EVA scale in patients
Source text: as §1

[3] = Body weight (nutritional recovery) of patient; details: Case 1; in 10 days, under Moscontin plus Modiodal 200 mg
Experimental: Given the progression of painful phenomena, at the end of October 1997 the patient is hospitalized. At this point in time the dosage of Moscontin® is 100 mg twice every 24 hours, their EVA score is 60, and their sleepiness evaluated on the Epworth scale is 20. The Moscontin® is increased to 160 mg twice every 24 hours. After stabilization of the analgesic level at an EVA score of 30, treatment with Modiodal®, initially in a dosage of 100 mg and then rapidly 200 mg, is initiated. This dosage allows their Epworth score to drop below 10. This quality of awakening has enabled them to resume family relationships of a better quality. The efficacy of the analgesia and their better vigilance level has enabled them to take accompanied walks. A nutritional recovery manifesting itself by a weight increase of 2 kg in 10 days is also to be noted in this patient.

[4] = Case 2, Skenan doses doubled combined with 200 mg Modiodal
[5] = Case 5, morphine treatment at home (oral)

Compound: NC(=O)C[S+]([O-])C(c1ccccc1)c1ccccc1 (stereo not drawn) [Modiodal®, benzhydrylsulphinyl-acetamide]
- Epworth score ([1]; Case 1, Modiodal 100 mg then 200 mg, with Moscontin 160 mg twice every 24 hours): below 10
- vigilance level rating (Epworth) [1, 4]: less than 10
- state of vigilance rating (Epworth) ([1]; Case 3, Modiodal 100 mg then 200 mg, with morphine 40 mg subcutaneous): 12
- sleepiness index after modafinil ([1]; Case 4, modafinil 300 mg achieved progressively, with Moscontin 100 mg x2): 11
- sleepiness index after modafinil ([1]; Case 5, modafinil 200 mg per day, with morphine 40 mg subcutaneous): 15
- clinical results (in words) ([1]; about 200 to 400 mg per day, in 1 or 2 doses): very favourable results
- effect on morphine sleepiness and that associated with clonazepam (in words) ([1]; summary of pilot cases 1 to 5): efficacy
- EVA (analgesic level) [2, 4]: 20
- weight increase [3]: 2 kg

Compound: O=C(C[S+]([O-])C(c1ccccc1)c1ccccc1)NO (stereo not drawn) [Olmifon®, benzhydrylsulphinyl-acetohydroxamic acid]
- clinical results (in words) ([1]; about 1,200 to 1,800 mg per day, in 2 doses): very favourable results

Compound: CN1CC[C@]23c4c5ccc(O)c4O[C@H]2[C@@H](O)C=C[C@H]3[C@H]1C5 [morphine]
- state of sleepiness on the Epworth scale ([1]; Case 3, morphine 40 mg subcutaneous, before Modiodal): 20
- sleepiness (in words) [1, 5]: severe sleepiness
- sleepiness index before modafinil ([1]; Case 5, under morphine, before modafinil): 22
- pain rating on the EVA scale ([2]; Case 3, continuous subcutaneous morphine combined with oral clonazepam): 30
- EVA [2, 5]: 40
